# Source: ChEMBL document CHEMBL1201862, “PubChem BioAssay data set” (2004)
# The source made the active and inactive calls.
# Legend:
# [1] = cells; format: functional
# [2] = cells; format: functional, cell-based
# [3] = cells; format: functional, cell-based; remark: listed apart in the source
# [4] = tested on: Salmon testes DNA; test: acridine orange-DNA binding displacement – biochemical, fluorescence polarization, cherry-picked samples, set 2, artefact control for KSHV LANA DNA-binding inhibitor project, dose response (AID 504727); parameters: species or system Salmonidae
# [5] = tested on: HeLa; test: viability loss in HeLa cells – cell-based, 24 h, cherry-picked samples, cytotoxicity control, dose response (AID 504726); format: functional; conditions: Homo sapiens;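 also: potency for cytotoxicity as loss of luminescence signal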
# [6] = target: T1, Short transient receptor potential channel 4 (Mus musculus, UniProt Q9QUQ5); test: potentiation of DAMGO-evoked TRPC4 calcium signal – cell-based, HEK293 TRPC4/mu-opioid, Fluo-4 calcium, EC20 DAMGO, dose response (AID 434941); format: functional
# T1 sequence (Q9QUQ5 whole entry): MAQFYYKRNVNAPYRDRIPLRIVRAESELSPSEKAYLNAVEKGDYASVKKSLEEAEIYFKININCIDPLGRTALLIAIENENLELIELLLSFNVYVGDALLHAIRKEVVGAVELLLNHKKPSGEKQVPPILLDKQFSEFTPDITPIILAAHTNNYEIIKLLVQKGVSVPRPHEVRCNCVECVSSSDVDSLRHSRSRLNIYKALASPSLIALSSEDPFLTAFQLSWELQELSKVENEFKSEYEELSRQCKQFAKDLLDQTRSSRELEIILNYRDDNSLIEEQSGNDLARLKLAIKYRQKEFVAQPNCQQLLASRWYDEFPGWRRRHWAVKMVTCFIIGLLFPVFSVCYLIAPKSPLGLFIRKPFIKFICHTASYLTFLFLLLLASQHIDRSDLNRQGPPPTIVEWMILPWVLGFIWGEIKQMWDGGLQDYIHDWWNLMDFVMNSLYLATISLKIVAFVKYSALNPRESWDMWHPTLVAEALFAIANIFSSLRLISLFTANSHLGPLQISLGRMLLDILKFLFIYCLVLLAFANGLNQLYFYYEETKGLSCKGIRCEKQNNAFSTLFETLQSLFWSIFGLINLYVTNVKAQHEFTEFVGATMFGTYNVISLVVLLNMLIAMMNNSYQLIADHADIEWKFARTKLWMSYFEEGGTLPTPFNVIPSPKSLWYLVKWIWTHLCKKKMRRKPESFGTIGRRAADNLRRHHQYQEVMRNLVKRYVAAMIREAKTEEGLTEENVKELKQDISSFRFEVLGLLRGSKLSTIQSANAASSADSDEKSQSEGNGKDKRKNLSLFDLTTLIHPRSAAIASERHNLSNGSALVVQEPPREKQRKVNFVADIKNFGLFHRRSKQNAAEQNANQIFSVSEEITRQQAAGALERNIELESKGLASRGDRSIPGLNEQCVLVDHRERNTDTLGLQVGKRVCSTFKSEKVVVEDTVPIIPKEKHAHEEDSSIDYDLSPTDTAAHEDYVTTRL
# [7] = target: T1, Short transient receptor potential channel 4; test: block of DAMGO-driven TRPC4 calcium entry – cell-based, HEK293 TRPC4/mu-opioid, Fluo-4 calcium, dose response (AID 434942); format: functional;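 also: potency of inhibitors blocking the TRPC4 calcium response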
# [8] = target: Envelope glycoprotein gp160 (Human immunodeficiency virus 1, UniProt Q6QLK5); test: cell-free HIV fusion peptide-binding blockers – biochemical, uHTS, fluorescence dequenching, […] (AID 1986)
# Chain of Envelope glycoprotein gp160 (Q6QLK5 whole entry, the tested form may be a part): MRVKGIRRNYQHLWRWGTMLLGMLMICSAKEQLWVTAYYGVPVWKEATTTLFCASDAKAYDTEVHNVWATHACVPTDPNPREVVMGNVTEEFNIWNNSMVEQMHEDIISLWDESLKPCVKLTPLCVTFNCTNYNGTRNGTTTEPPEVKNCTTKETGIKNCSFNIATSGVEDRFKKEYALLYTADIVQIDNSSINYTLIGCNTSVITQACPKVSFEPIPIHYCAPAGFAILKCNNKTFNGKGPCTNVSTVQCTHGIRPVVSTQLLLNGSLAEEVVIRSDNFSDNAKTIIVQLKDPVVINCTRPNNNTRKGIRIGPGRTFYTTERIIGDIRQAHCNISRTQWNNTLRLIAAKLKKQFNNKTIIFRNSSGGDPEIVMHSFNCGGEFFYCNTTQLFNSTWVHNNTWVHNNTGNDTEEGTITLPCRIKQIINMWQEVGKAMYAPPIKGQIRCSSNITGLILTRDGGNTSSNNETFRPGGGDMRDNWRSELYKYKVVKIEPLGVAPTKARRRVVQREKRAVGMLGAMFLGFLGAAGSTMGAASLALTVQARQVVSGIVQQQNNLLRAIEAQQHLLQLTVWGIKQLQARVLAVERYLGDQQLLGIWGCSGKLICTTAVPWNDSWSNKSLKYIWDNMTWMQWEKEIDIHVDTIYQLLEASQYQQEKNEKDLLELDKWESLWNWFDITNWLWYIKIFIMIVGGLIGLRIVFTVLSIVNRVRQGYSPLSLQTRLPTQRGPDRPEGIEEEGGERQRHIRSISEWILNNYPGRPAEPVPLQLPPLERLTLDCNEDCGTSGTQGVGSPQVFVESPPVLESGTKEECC
# [9] = target: Collagenase 3 (Homo sapiens, UniProt P45452); test: potency against MMP13, MMP2, MMP3, MMP14 – biochemical, probe development, late stage results, selectivity assay for MMP13 inhibitor project, late-stage follow-up, panel member MMP-13 [IC50 Assay] (AID 2067)
# [10] = target: Neutrophil collagenase (Homo sapiens, UniProt P22894); test: potency against MMP13, MMP2, MMP3, MMP14 – biochemical, probe development, late stage results, selectivity assay for MMP13 inhibitor project, late-stage follow-up, panel member MMP-8 [IC50 Assay] (AID 2067)
# Chain of Neutrophil collagenase (P22894 whole entry): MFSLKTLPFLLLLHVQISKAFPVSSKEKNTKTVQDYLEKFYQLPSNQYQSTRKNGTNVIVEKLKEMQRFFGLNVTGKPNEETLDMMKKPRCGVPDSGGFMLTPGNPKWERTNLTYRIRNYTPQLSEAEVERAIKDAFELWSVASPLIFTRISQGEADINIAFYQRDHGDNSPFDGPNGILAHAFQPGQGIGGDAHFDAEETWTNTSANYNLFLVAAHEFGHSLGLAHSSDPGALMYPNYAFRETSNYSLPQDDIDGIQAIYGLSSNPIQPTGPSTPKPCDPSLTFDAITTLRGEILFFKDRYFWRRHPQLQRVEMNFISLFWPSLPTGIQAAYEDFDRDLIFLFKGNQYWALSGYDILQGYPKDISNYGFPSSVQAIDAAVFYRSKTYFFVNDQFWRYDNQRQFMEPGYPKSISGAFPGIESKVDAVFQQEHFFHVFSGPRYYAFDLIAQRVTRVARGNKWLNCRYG
# [11] = target: T2, Dual specificity protein phosphatase 6 (Rattus norvegicus, UniProt Q64346); format: functional;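 also: confirmatory in vitro dose-response testing of MKP-3 inhibition; recombinant His-tagged MKP-3 made in E. coli BL21 with OMFP substrate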
# T2 sequence (Q64346 whole entry): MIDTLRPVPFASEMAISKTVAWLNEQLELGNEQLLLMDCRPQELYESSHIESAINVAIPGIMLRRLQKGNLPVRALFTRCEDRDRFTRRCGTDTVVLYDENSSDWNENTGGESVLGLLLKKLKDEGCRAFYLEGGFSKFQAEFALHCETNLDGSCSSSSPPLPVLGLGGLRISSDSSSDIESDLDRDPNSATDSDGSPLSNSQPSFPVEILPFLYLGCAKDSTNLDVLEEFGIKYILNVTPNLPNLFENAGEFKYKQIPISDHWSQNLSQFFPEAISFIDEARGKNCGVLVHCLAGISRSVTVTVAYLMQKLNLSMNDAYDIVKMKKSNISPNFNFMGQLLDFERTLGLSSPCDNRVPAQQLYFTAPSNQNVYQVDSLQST
# [12] = target: T3, Tyrosine-protein phosphatase non-receptor type 7 (Homo sapiens, UniProt P35236); test: redox-active compounds inhibiting HePTP phosphatase – biochemical, fluorescence, mechanism study (AID 2068); format: functional
# T3 sequence (P35236 whole entry): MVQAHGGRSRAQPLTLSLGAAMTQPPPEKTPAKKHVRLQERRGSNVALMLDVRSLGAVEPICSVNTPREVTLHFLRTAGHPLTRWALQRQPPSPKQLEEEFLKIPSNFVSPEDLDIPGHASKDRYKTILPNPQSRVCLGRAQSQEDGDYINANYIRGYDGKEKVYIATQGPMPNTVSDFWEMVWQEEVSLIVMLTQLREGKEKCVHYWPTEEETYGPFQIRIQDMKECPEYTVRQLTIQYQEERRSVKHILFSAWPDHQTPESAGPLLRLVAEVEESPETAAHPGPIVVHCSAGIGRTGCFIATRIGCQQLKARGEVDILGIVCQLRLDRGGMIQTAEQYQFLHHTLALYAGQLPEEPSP
# [13] = target: T4, Neuropeptides B/W receptor type 1 (Homo sapiens, UniProt P48145); test: human NPBW1 receptor blockade, IC50 – cell-based, fluorescence, dose response, late-stage follow-up (AID 463251); format: functional
# T4 sequence (P48145 whole entry): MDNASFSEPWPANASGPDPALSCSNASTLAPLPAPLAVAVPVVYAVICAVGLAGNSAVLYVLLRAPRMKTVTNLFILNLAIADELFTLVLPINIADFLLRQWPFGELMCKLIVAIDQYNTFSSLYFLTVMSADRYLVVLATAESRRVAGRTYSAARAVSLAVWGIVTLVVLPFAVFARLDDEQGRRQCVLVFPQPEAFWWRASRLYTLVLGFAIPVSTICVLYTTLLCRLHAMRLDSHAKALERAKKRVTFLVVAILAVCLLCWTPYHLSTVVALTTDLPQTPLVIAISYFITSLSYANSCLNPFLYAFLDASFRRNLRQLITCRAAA
# [14] = target: Melanin-concentrating hormone receptor 1 (Homo sapiens, UniProt Q99705); test: Late-stage fluorescence-based counterscreen for antagonists of the G-protein coupled receptor 7 (GPR7): cell-based dose response assay to identify antagonists of the melanin-concentrating hormone receptor 1 (MCHR1). [Related pubchem assays (depositor defined):AID1861, AID1880, AID1952, AID2148, AID2251, AID2257, AID485339]; format: functional;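 also: stimulated with 30 nM MCH peptide agonist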
# Chain of Melanin-concentrating hormone receptor 1 (Q99705 whole entry): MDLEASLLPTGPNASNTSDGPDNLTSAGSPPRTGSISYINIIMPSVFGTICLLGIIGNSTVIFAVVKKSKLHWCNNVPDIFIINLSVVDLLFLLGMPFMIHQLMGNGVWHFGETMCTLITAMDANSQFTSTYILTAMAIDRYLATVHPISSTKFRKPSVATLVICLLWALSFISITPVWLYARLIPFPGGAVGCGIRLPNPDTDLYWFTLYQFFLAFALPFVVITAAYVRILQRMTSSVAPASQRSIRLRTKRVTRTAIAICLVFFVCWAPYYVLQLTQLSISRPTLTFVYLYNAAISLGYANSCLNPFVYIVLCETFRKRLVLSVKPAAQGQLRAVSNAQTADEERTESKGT
# [15] = target: T5, Kappa-type opioid receptor (Homo sapiens, UniProt P41145); test: SAR analysis of Antagonists of the Kappa Opioid Receptor (KOR) using an Image-Based Assay - Set 4. [Related pubchem assays (depositor defined):AID1777, AID1785]; format: functional
# T5 sequence (P41145 whole entry): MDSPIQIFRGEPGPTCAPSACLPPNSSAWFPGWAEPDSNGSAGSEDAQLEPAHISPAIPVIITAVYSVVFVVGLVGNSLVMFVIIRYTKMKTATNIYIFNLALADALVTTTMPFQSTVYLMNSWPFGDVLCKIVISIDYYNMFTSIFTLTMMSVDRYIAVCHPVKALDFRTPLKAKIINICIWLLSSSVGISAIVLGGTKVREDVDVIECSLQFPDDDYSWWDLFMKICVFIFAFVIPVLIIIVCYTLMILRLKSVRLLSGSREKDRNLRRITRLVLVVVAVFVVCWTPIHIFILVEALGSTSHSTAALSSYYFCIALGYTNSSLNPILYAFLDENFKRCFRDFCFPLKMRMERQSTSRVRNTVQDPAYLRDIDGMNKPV
# [16] = target: T5, Kappa-type opioid receptor; test: SAR analysis of small molecule antagonists of the kappa opioid receptor via a luminescent beta-arrestin assay - Set 3. [Related pubchem assays (depositor defined):AID1777, AID1778, AID1785, AID1786, AID1966, AID2133, AID2136, AID2285, AID2495]; format: functional
# [17] = target: T5, Kappa-type opioid receptor; test: SAR analysis of small molecule antagonists of the kappa opioid receptor via a luminescent beta-arrestin assay - Set 6. [Related pubchem assays (depositor defined):AID1777, AID1778, AID1785, AID1786, AID1966, AID2133, AID2136, AID2285]; format: functional
# [18] = target: Mu-type opioid receptor (Homo sapiens, UniProt P35372); test: SAR Analysis of Antagonists of the MOR Receptor using an Image-Based Assay - Set 3. [Related pubchem assays (depositor defined):AID1777, AID1785, AID1786, AID1966, AID2133, AID2136, AID2284, AID2285, AID2420]; format: functional
# Chain of Mu-type opioid receptor (P35372 whole entry): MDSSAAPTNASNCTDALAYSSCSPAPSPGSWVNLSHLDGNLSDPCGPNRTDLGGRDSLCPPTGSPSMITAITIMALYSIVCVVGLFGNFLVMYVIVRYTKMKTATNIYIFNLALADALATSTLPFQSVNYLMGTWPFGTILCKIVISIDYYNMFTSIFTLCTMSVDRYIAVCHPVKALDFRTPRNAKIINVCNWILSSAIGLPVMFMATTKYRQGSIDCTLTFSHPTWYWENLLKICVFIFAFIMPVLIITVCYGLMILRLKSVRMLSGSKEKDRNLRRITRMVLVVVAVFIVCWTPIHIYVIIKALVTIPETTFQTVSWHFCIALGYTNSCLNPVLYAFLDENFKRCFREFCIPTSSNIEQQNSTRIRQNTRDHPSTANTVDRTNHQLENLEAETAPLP
# [19] = target: Delta-type opioid receptor (Homo sapiens, UniProt P41143); test: SAR Analysis of Antagonists of the DOR Receptor using an Image-Based Assay - Set 3. [Related pubchem assays (depositor defined):AID1777, AID1785]; format: functional;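 also: U2OS cells expressing DOR1 and beta-arrestin GFP stimulated with 100 nM SNC80; imaging of GFP-tagged beta-arrestin moving into spots after receptor activation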
# Chain of Delta-type opioid receptor (P41143 whole entry): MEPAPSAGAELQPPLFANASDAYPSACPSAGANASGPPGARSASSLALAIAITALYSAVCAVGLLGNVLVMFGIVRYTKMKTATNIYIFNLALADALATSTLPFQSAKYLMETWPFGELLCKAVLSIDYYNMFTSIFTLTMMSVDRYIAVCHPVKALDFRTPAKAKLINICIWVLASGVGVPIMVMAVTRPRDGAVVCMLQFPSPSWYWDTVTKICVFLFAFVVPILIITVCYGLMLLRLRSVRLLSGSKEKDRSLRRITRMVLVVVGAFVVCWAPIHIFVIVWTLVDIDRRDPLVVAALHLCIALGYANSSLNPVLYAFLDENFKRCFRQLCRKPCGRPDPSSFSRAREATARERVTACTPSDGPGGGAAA
# [20] = NIH-3T3 fibroblast cytotoxicity, dose response, cytotoxicity control, cell-based, fluorescence, Alamar Blue, secondary assay (AID 2327); format: functional;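 also: NIH-3T3 mouse fibroblasts cultured with fluconazole at 8 µg/mL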
# [21] = tested on: INS1; test: INS-1E survival protection against cytokine death – cell-based, luminescence, retest, dose response (AID 449756); format: functional; conditions: Rattus norvegicus;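 also: cell death triggered by IL-1 beta plus TNF-alpha plus IFN-gamma mixture; protective hits raise ATP signal compared with cytokine alone wells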
# [22] = target: ATP-dependent molecular chaperone HSP82 (Candida albicans (strain WO-1) (Yeast), UniProt C4YTQ8); test: steroid-induced GRE reporter decrease in yeast – S. cerevisiae, luminescence, Hsp90 inhibitor project, dose response (AID 2400); format: functional, cell-based;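 also: beta-galactosidase luminescence from glucocorticoid response element reporter as proxy for Hsp90 function; inhibitor potency where signal loss means Hsp90 inhibition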
# Chain of ATP-dependent molecular chaperone HSP82 (C4YTQ8 whole entry): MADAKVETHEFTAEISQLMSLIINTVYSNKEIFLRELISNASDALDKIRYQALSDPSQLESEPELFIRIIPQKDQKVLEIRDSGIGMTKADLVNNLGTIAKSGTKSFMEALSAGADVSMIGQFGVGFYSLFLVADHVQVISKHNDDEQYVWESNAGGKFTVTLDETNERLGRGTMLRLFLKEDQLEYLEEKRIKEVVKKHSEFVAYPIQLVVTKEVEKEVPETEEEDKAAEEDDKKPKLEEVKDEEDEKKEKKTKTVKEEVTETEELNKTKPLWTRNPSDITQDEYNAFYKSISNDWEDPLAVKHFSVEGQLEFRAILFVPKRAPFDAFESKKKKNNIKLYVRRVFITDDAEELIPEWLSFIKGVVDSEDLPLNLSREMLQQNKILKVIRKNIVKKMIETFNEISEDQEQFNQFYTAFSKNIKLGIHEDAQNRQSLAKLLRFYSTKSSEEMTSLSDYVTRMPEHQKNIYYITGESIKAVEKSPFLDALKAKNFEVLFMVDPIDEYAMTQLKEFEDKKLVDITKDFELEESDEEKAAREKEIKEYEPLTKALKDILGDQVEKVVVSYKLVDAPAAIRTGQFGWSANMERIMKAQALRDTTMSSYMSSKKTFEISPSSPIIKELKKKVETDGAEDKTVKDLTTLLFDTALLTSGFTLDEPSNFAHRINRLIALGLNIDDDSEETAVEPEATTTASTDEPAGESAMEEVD
# [23] = target: Nonstructural protein 1 (Influenza A virus, UniProt Q194T2); format: functional, Influenza A virus (A/California/07/2009(H1N1))
# Chain of Nonstructural protein 1 (Q194T2 whole entry): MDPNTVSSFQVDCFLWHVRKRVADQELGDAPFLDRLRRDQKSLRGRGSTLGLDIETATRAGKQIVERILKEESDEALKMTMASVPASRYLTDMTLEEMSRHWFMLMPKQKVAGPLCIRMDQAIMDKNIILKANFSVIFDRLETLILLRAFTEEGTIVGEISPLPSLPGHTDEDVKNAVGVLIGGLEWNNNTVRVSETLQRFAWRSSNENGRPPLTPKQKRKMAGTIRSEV
# [24] = fluconazole-exposed Candida albicans growth modulators – fluorescence, retest, confirmation (AID 2467); format: functional, cell-based
# [25] = tested on: Vero; test: viability of Vero cells under compound – cytotoxicity control for flavivirus capping enzyme inhibitors (AID 588742); format: functional; conditions: Chlorocebus sabaeus
# [26] = target: T6, Beta-galactosidase (Escherichia coli, UniProt Q8VNN2); format: functional
# T6 sequence (Q8VNN2 whole entry): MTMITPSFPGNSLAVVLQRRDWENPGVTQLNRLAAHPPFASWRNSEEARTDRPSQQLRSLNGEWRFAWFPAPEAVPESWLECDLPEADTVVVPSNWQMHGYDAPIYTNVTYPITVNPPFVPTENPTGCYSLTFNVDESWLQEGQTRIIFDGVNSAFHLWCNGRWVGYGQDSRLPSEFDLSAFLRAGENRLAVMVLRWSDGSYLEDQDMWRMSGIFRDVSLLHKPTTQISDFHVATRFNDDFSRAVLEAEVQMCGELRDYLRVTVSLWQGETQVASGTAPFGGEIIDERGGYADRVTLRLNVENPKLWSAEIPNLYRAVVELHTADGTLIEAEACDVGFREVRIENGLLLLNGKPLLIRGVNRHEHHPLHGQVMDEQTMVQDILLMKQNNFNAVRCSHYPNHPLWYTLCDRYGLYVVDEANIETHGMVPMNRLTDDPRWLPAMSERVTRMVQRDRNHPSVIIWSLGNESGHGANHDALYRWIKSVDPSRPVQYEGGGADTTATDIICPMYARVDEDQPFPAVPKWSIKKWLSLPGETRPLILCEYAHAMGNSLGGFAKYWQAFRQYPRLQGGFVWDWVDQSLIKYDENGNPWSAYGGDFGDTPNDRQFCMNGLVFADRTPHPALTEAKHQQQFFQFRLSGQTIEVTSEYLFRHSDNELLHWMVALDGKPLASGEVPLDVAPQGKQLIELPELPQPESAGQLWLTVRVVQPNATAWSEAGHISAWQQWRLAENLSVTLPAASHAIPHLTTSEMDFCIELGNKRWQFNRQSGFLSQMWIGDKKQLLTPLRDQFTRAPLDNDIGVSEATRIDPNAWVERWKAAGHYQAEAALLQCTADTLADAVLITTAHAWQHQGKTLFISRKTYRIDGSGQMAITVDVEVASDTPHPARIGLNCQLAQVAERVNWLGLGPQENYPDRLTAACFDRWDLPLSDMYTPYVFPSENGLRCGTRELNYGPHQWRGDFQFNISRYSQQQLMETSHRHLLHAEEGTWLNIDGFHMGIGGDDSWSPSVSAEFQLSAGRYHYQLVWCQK
# [27] = target: Heat shock protein HSP 90-alpha (Homo sapiens, UniProt P07900); format: functional, organism-based
# [28] = target: T6, Beta-galactosidase; test: Dose response counterscreen for EBI2 assay utilizing the enzyme, b-galactosidase.; format: functional
# [29] = target: T5, Kappa-type opioid receptor; format: functional
# [30] = mammalian cell viability loss – Alamar Blue, dry powder, cytotoxicity control for antifungal single agent project, dose response (AID 602188); format: functional, cell-based
# [31] = target: T5, Kappa-type opioid receptor; format: functional; remark: listed apart in the source
# [32] = target: T7, Serine/threonine-protein phosphatase (Candida dubliniensis (strain CD36 / CBS 7987 / NCPF 3949 / NRRLY-17841) (Yeast), UniProt B9W6M3); test: blockers of CaCl2-induced CDRE-lacZ signaling – S. cerevisiae, luminescence, secondary, dose response (AID 2388); format: functional, cell-based;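 also: yeast reporter cells carrying a calcineurin-responsive lacZ construct stimulated with calcium chloride; luminescent beta-galactosidase reporter signal in whole cells rather than isolated phosphatase activity; potency for inhibition where a drop in reporter signal means calcineurin blockade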
# T7 sequence (B9W6M3 whole entry): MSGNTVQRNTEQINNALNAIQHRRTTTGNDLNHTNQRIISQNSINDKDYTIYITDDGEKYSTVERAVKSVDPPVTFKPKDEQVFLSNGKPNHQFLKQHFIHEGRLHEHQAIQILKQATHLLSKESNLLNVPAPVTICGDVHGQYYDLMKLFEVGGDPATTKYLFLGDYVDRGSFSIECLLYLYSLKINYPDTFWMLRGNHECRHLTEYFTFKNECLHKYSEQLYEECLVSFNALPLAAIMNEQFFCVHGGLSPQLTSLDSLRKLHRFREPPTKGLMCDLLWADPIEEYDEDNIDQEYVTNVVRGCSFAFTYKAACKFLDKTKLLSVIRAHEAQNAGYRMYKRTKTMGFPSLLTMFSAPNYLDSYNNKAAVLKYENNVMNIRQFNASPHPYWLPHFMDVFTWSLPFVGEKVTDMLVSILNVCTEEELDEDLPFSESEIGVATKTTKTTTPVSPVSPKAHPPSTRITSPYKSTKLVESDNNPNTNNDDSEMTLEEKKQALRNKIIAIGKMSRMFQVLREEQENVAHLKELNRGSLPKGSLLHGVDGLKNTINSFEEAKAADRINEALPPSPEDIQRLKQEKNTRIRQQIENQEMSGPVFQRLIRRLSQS
structure (smiles),measurement,setting,value
CCOC(=O)c1c(C)nc2cc(C)ccn12,IC50,[1],28.4 µM (active)
same,EC50,[2],> 350 µM (not active)
same,EC50,[3],> 350 µM (not active)
same,AC50,[4],285 µM (active)
same,AC50,[5],69.7 µM (active)
CCOC(=O)C(O)(c1ccc(NC(=S)NC(=O)c2ccc(Cl)cc2Cl)c(C)c1)C(F)(F)F (configuration not stated),EC50,[6],3.35 µM (active)
CCOc1ccc(NC(=O)c2cnn3c(O)cc(C4CCN(C(=O)OC(C)(C)C)CC4)nc23)cc1,EC50,[7],4.22 µM (active)
same,IC50,[8],> 99 µM (inactive)
CCCCSc1nc(O)c2c(n1)CCC2,IC50,[9],> 39.8 µM (active)
same,IC50,[10],> 39.8 µM (active)
COc1cc(C(=S)NCc2ccccc2)ccc1O,IC50,[11],> 100 µM (inactive)
same,IC50,[12],0.665 µM (active)
CCOc1ccc(Oc2cnn(-c3ccc(C)cc3)c(=O)c2Cl)cc1,IC50,[13],6.3 µM (active)
same,IC50,[14],18.2 µM (inactive)
O=C(Cn1c(=O)c2cccn2c2cc(Br)cnc21)NCCCN1CCN(c2ccc3c(c2)OCO3)CC1,IC50,[15],0.147 µM (active)
same,IC50,[16],3.81 µM (active)
same,IC50,[17],2.42 µM (active)
same,IC50,[18],> 32 µM (inactive)
same,IC50,[19],> 32 µM (inactive)
C/C(=N\NC(=O)c1cc2ccccc2cc1O)c1ccccn1,EC50,[20],> 150 µM (inactive)
same,AC50,[21],0.958 µM (active)
same,EC50,[22],4.08 µM (active)
same,IC50,[23],3.77 µM (active)
same,EC50,[24],1.02 µM (active)
same,CC50,[25],1.93 µM (active)
same,EC50,[26],> 31.5 µM (inactive)
same,AC50,[27],6.63 µM (active)
same,IC50,[28],136 µM (inactive)
same,IC50,[29],> 32 µM
same,AC50,[30],0.729 µM (active)
same,IC50,[31],2.14 µM (active)
same,EC50,[32],> 180 µM (inactive)
